The source of these data is PubChem BioAssay (NCI).

Molecules are shown by their SMILES.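 Five concentrations, 48 hours, 96-well plates. TGI: total growth inhibition.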

Some test systems named below: BT-549 breast; NCI-H522 lung; IGROV1 ovarian; SN12C renal; A549 NSCLC; HS 578T breast; OVCAR-8 ovarian; MCF7 breast; TK-10 renal; K-562 leukemia; CAKI-1 renal; SR leukemia.
Common to all, as to test: NCI tumour cell line growth inhibition, 48 h

Turning to `CCOC(=O)/C=C(/C(=O)OCC)n1ccc(N)nc1=O`, the TGI with BT-549 breast was greater than 100 µM; in the test on NCI-H522 lung, 54.8 µM; with IGROV1 ovarian it was greater than 100 µM; with SN12C renal it was greater than 100 µM; in the test on A549 NSCLC, greater than 100 µM; in the test with HS 578T breast, greater than 100 µM. Also, the TGI in the test on OVCAR-8 ovarian, in the test on MCF7 breast, in the test with TK-10 renal, in the test on K-562 leukemia, in the test with CAKI-1 renal and in the test with SR leukemia was greater than 100 µM in each case.
Take `COc1ccc(/C=N/N=C(\N)NO)c(O)c1`: the TGI in the test on BT-549 breast, with NCI-H522 lung, in the test on IGROV1 ovarian, in the test with SN12C renal, with A549 NSCLC and in the test on HS 578T breast was greater than 10 µM in each case. Also, the TGI is greater than 10 µM with OVCAR-8 ovarian; greater than 10 µM in the test with MCF7 breast; greater than 10 µM in the test with TK-10 renal; greater than 10 µM in the test on K-562 leukemia; 9.58 µM in the test with CAKI-1 renal; greater than 10 µM with SR leukemia.
In the case of `Nc1c(Cl)ncnc1N[C@@H]1C[C@H]1CO`, the TGI with BT-549 breast, in the test with NCI-H522 lung, in the test with IGROV1 ovarian, with SN12C renal, in the test with A549 NSCLC and in the test on HS 578T breast was greater than 100 µM throughout. Moreover, the TGI in the test on OVCAR-8 ovarian, in the test with MCF7 breast, with TK-10 renal, in the test on K-562 leukemia, with CAKI-1 renal and in the test with SR leukemia was greater than 100 µM each time.
Turning to `NCCN=C(Nc1ccccc1)Nc1ccccc1`, the TGI in the test on BT-549 breast, in the test with NCI-H522 lung, with IGROV1 ovarian, with SN12C renal, with A549 NSCLC and in the test with HS 578T breast was greater than 100 µM throughout. In addition, the TGI in the test with OVCAR-8 ovarian, in the test on MCF7 breast, in the test on TK-10 renal, with K-562 leukemia, in the test with CAKI-1 renal and in the test on SR leukemia was greater than 100 µM each time.
As for `O=c1oc2ccccc2c(Nc2ccc3c(c2)Oc2ccccc2O3)c1[N+](=O)[O-]`, the TGI was 64.9 µM with BT-549 breast; 65.5 µM with NCI-H522 lung; 48.9 µM in the test with IGROV1 ovarian; greater than 100 µM in the test with SN12C renal; greater than 100 µM in the test on A549 NSCLC; 82.8 µM in the test with HS 578T breast. Also, the TGI with OVCAR-8 ovarian was 37.6 µM; with MCF7 breast, 47.7 µM; in the test on TK-10 renal it was 40.1 µM; in the test with K-562 leukemia it was greater than 100 µM; with CAKI-1 renal, greater than 100 µM; in the test with SR leukemia, greater than 100 µM.
For the molecule `C/C=C/C(O)P1(=O)N(Cc2ccccc2)[C@@H]2CCCC[C@H]2N1Cc1ccccc1` (some centres not stated), the TGI with BT-549 breast, in the test on NCI-H522 lung, in the test with IGROV1 ovarian, with SN12C renal, in the test on A549 NSCLC and with HS 578T breast was greater than 25 µM each time. The TGI in the test on OVCAR-8 ovarian, with MCF7 breast, in the test on TK-10 renal, with K-562 leukemia, with CAKI-1 renal and in the test on SR leukemia was greater than 25 µM in each case.
As for `C1CNCCNCCN1`, the TGI in the test on BT-549 breast, in the test with NCI-H522 lung, with IGROV1 ovarian, in the test with SN12C renal, in the test on A549 NSCLC and in the test with HS 578T breast was greater than 100 µM in each case. In addition, the TGI with OVCAR-8 ovarian, in the test on MCF7 breast, in the test with TK-10 renal, in the test on K-562 leukemia, with CAKI-1 renal and in the test with SR leukemia was greater than 100 µM each time.
On to `CC(=O)N1N=C(c2ccc3ccccc3c2O)CC1C(=O)c1ccco1` (configuration not stated), for which the TGI in the test on BT-549 breast is greater than 100 µM; in the test with NCI-H522 lung it was 76.6 µM; with IGROV1 ovarian, greater than 100 µM; with SN12C renal it was greater than 100 µM; with A549 NSCLC, greater than 100 µM; in the test on HS 578T breast, greater than 100 µM. The TGI in the test with OVCAR-8 ovarian was greater than 100 µM; with MCF7 breast it was greater than 100 µM; with TK-10 renal, greater than 100 µM; in the test on K-562 leukemia, 41 µM; in the test on CAKI-1 renal, greater than 100 µM; with SR leukemia it was 18.6 µM.
Take `CC(=O)O[C@H]1CC[C@@]2(C)C(=CC[C@H]3[C@@H]4C[C@H](N5CCCC5)[C@H](OC(C)=O)[C@@]4(C)CC[C@@H]32)C1`: the TGI with BT-549 breast, in the test with NCI-H522 lung, with IGROV1 ovarian, with SN12C renal, in the test on A549 NSCLC and with HS 578T breast was greater than 100 µM each time. Also, the TGI with OVCAR-8 ovarian was greater than 100 µM; with MCF7 breast it was greater than 100 µM; with TK-10 renal it was greater than 100 µM; in the test with K-562 leukemia it was greater than 67.4 µM; with CAKI-1 renal, greater than 100 µM; in the test with SR leukemia it was greater than 100 µM.
As for `CC1=NN2C(=N)/C(=C/c3ccco3)C(=O)N=C2S1`, the TGI in the test with BT-549 breast, in the test with NCI-H522 lung, with IGROV1 ovarian, in the test with SN12C renal, in the test on A549 NSCLC and with HS 578T breast was greater than 100 µM in each case. Further, the TGI in the test with OVCAR-8 ovarian, with MCF7 breast, in the test with TK-10 renal, in the test on K-562 leukemia, in the test on CAKI-1 renal and in the test with SR leukemia was greater than 100 µM in each case.
Consider `O=C1c2ccccc2-c2nc(-c3cccc([N+](=O)[O-])c3)nnc21`, for which the TGI in the test with BT-549 breast is 36.7 µM; in the test on NCI-H522 lung, greater than 100 µM; with IGROV1 ovarian it was greater than 100 µM; with SN12C renal, 45.7 µM; in the test with A549 NSCLC it was 98.6 µM; with HS 578T breast, greater than 100 µM. Moreover, the TGI in the test with OVCAR-8 ovarian was 86.7 µM; with MCF7 breast it was greater than 100 µM; with TK-10 renal, 39.5 µM; in the test with K-562 leukemia, greater than 100 µM; in the test on CAKI-1 renal, 12.6 µM; in the test on SR leukemia, greater than 100 µM.
